Laboratory results taken from the NIST ThermoML archive (doi:10.1016/j.jct.2013.05.051).

Settings: Liquid, Vibrating tube method

CCCCCCCO [heptan-1-ol]
mass density [kg/m3]
Settings | 298.15 K | 313.15 K | 333.15 K | 353.15 K | 373.15 K | 393.15 K
100 kPa | 818.7 | 808 | 793.3 | 778.1 | 761.9 | 744.9
1000 kPa | 819.3 | 808.6 | 794 | 778.8 | 762.8 | 745.8
5000 kPa | 821.9 | 811.4 | 797.1 | 782.3 | 766.6 | 750.2
10000 kPa | 824.9 | 814.7 | 800.7 | 786.3 | 771.1 | 755.3
15000 kPa | 828 | 817.9 | 804.3 | 790.2 | 775.5 | 760.1
20000 kPa | 830.8 | 821 | 807.7 | 793.9 | 779.5 | 764.6
25000 kPa | 833.5 | 823.8 | 810.8 | 797.3 | 783.4 | 768.8
30000 kPa | 836.3 | 826.8 | 813.9 | 800.7 | 787.1 | 772.9
35000 kPa | 838.8 | 829.5 | 816.9 | 804 | 790.6 | 776.8
40000 kPa | 841.3 | 832.1 | 819.8 | 807.1 | 794 | 780.4
45000 kPa | 843.8 | 834.7 | 822.4 | 810 | 797.2 | 783.9
50000 kPa | 846.2 | 837.2 | 825.2 | 813 | 800.3 | 787.3
55000 kPa | 848.5 | 839.7 | 827.8 | 815.8 | 803.4 | 790.7
60000 kPa | 850.8 | 842.1 | 830.3 | 818.6 | 806.3 | 793.8
65000 kPa | 853 | 844.4 | 832.9 | 821.2 | 809.2 | 796.8
70000 kPa | 855.2 | 846.7 | 835.3 | 823.8 | 811.9 | 799.8
80000 kPa | 859.4 | 851.1 | 839.9 | 828.7 | 817.2 | 805.5
90000 kPa | 863.5 | 855.3 | 844.5 | 833.5 | 822.3 | 810.9
100000 kPa | 867.3 | 859.3 | 848.7 | 837.9 | 827 | 815.9
110000 kPa | 871.1 | 863.2 | 852.8 | 842.3 | 831.6 | 820.8
120000 kPa | 874.6 | 867 | 856.8 | 846.4 | 835.9 | 825.3
130000 kPa | 878.1 | 870.6 | 860.5 | 850.3 | 840.2 | 829.8
140000 kPa | 881.5 | 874.2 | 864.3 | 854.3 | 844.1 | 834

CCCCCCC [heptane]
mass density [kg/m3]
Settings | 298.15 K | 313.15 K | 333.15 K | 353.15 K | 373.15 K | 393.15 K
100 kPa | 679.5 | 666.6 | 648.9 | 631.2 | – | –
1000 kPa | 680.4 | 667.6 | 650 | 632.1 | 613.3 | 593.5
5000 kPa | 684.2 | 671.8 | 655 | 637.8 | 620.1 | 601.7
10000 kPa | 688.6 | 676.7 | 660.6 | 644.3 | 627.7 | 610.6
15000 kPa | 692.8 | 681.3 | 665.8 | 650.3 | 634.5 | 618.4
20000 kPa | 696.7 | 685.6 | 670.6 | 655.7 | 640.7 | 625.4
25000 kPa | 700.4 | 689.5 | 675.1 | 660.8 | 646.3 | 631.7
30000 kPa | 704 | 693.5 | 679.4 | 665.5 | 651.6 | 637.5
35000 kPa | 707.4 | 697.1 | 683.4 | 670 | 656.5 | 643
40000 kPa | 710.7 | 700.5 | 687.3 | 674.1 | 661.1 | 648
45000 kPa | 713.8 | 703.9 | 690.9 | 678.1 | 665.5 | 652.8
50000 kPa | 716.8 | 707.2 | 694.4 | 682 | 669.6 | 657.2
55000 kPa | 719.7 | 710.3 | 697.7 | 685.5 | 673.5 | 661.5
60000 kPa | 722.5 | 713.3 | 701 | 689.1 | 677.3 | 665.5
65000 kPa | 725.2 | 716.1 | 704.1 | 692.4 | 680.8 | 669.3
70000 kPa | 727.9 | 718.9 | 707.1 | 695.7 | 684.3 | 673.1
80000 kPa | 732.9 | 724.2 | 712.8 | 701.7 | 690.8 | 680.1
90000 kPa | 737.7 | 729.3 | 718.2 | 707.5 | 696.9 | 686.5
100000 kPa | 742.3 | 734 | 723.2 | 712.8 | 702.6 | 692.5
110000 kPa | 746.6 | 738.6 | 728.1 | 717.9 | 708 | 698.2
120000 kPa | 750.7 | 742.8 | 732.6 | 722.7 | 713 | 703.4
130000 kPa | 754.6 | 747 | 737 | 727.3 | 717.9 | 708.5
140000 kPa | 758.4 | 751.1 | 741.1 | 731.6 | 722.3 | 713.4
